The values below come from publication PMC5618426, “APETx4, a Novel Sea Anemone Toxin and a Modulator of the Cancer-Relevant Potassium Channel KV10.1” (Marine Drugs, 2017).

Positions of bridges follow the written chain, without caps; N, C: chain ends. No end group written: not given here.

For data set [1], the system named is Xenopus oocytes.
The subject of data set [2] is SH-SY5Y. The data set is classed as cell-based, human. The text has this:
(§1) The proapoptotic activity of APETx4 was visualized and quantified by the addition of the IncuCyte Caspase-3/7 Reagent. This reagent is an inert and non-fluorescent substrate, which is cleaved by activated caspase-3/7 during early apoptosis. The cleavage of the reagent releases a DNA-binding green fluorescent dye. […] In Figure 7 an overview is given for the caspase assays of all the tested cell lines.
(§2) Figure 7 Investigation of the proapoptotic effect of APETx4 on various cell lines using a Caspase-3/7 Reagent. The amount of cells in early apoptosis was plotted as Green Object Count (1/mm²) versus time (hours). The data points represented as red triangles were obtained from apoptosis experiments with cells incubated without APETx4, the green squares represent experiments with 20 µM APETx4 and the blue circles were obtained from experiments with 50 µM APETx4.
(§3) Cell lines SH-SY5Y (ACC 209), LNCaP (ACC 256) and NIH-3T3 (ACC 59) were purchased from DSMZ (Germany). MDA-MB-435S (HTB 129) and hTERT RPE-1 (CRL 4000) were obtained from ATCC (USA). Cell lines were cultured in their recommended media supplemented with 10% or 15% FCS (PAA laboratories, Cölbe, Germany) at 37 °C in humidified 5% CO2 atmosphere. All media were purchased from ThermoFisher Scientific (Waltham, MA, USA).
(§4) Cell proliferation, cytotoxicity and apoptosis were assessed in a 96-well microtiter plate by live-cell imaging using an IncuCyte Zoom System (Essen BioScience, Welwyn Garden City, UK). Cell proliferation was monitored in terms of cell confluency (%). Cell cytotoxicity was assessed by the CellTox Green Dye assay (Promega, Madison, WI, USA). The IncuCyte Caspase-3/7 apoptosis assay (Essen BioScience, UK) was used to evaluate the effect of APETx4 on the apoptotic pathway.
(§5) Live-cell imaging data were collected from the IncuCyte Zoom software and analyzed using GraphPad Prism 6 software. Proliferation was measured as Phase Object Confluence (%), cytotoxicity and apoptosis were measured as Green Object Count (1/mm²). Data points were collected every hour. In order to improve the clarity of the graphs, only the data points for every 5 h are shown. All data are represented as mean ± S.E.M of n = 4 different wells.

Data set [3] has as its system MDA-MB-435S. The format is cell-based, human.
Source text: as §1, §2, §3, §4, §5

The test system of data set [4] is hTERT RPE-1. The format is cell-based, human.
Source text: as §1, §2, §3, §4, §5

The test system of data set [5] is LNCaP. The data set is classed as cell-based, human.
Source text: as §1, §2, §3, §4, §5

[6] abbreviates: 50 µM APETx4, 0 h, 24 h and 48 h.
The mark [7] stands for this setting: green object count (1/mm²) versus incubation time.
Where [8] appears, read: 50 µM APETx4, immediately after toxin addition.

“GTTCYCGKTIGIYWFGKYSCPTNRGYTGSCPYFLGICCYPVD (disulfide 4-37, 6-30, 20-38) [APETx4]”: the “cytotoxic effect in Xenopus oocytes” value in data set [1] was “cytotoxic effect is not observed”. Further, the “viability in cell images” value is “immediate effects were not clearly observed” in data set [2] (setting [6]), “immediate effects were not clearly observed” in data set [3] (setting [6]), “became less viable” in data set [4] (setting [8]) and “became less viable” in data set [5] (setting [8]). The “time course of green fluorescent cells (early apoptosis)” value in data set [2] (setting [7]) and in data set [3] (setting [7]) was “gradual increase in green fluorescent cells” in each case. For the same sequence, the “response time in caspase assay” value in data set [4] (very rapid response) and in data set [5] (very rapid response) was < 60 min throughout.
